According to ChEMBL document CHEMBL5244255, “An insight on medicinal attributes of 1,2,4-triazoles” (Eur J Med Chem, 2020):
≈ marks a conversion by molar mass, not a printed value.

Legend:
[1] = tested on: Mycobacterium tuberculosis; assay: Antimycobacterial activity against drug resistant Mycobacterium tuberculosis measured after 8 to 9 days; type: functional; details: time 8-9 day
[2] = tested on: Mycobacterium tuberculosis; assay: Antimycobacterial activity against multi drug resistant Mycobacterium tuberculosis measured after 8 to 9 days; type: functional; details: time 8-9 day

Row | Structure (SMILES) | MIC [1] [µg/mL] | MIC [2] [µg/mL]
1 | O=[N+]([O-])c1ccc(C2=Nn3c(nnc3-c3ccnc(F)c3)CC2)cc1 | 0.25 (≈ 0.739 µM) | 0.25 (≈ 0.739 µM)
2 | O=[N+]([O-])c1ncn(CCCCNS(=O)(=O)c2scc(Cl)c2Cl)n1 | – | 0.25 (≈ 0.625 µM)
3 | O=[N+]([O-])c1ccc(C2=Nn3c(nnc3-c3ccc(Br)cc3)CC2)cc1 | 0.25 (≈ 0.628 µM) | –
4 | Brc1ccc(OCc2nn3c(-c4ccc(Br)cc4)nnc3s2)cc1 | 0.5 (≈ 1.07 µM) | 4 (≈ 8.58 µM)
5 | Clc1ccc(-c2nnc3sc(COc4ccc(Br)cc4)nn23)cc1 | 0.5 (≈ 1.19 µM) | 4 (≈ 9.49 µM)
